From patent US11866518B2, “Bicyclic peptide ligands specific for TSLP” (BicycleTx Limited, priority 2020, dated 2024) come the findings set out here.

Where two headings read alike, the source gives them in different places. *1 amine or outer side, *2 acyl side, *3 side chain or, on linkers, in order; H or OH if unused. Where a SMILES comes first, the peptide text is derived from it. Bridges are numbered along the chain shown (N, C = ends). TATA = O=C(CC[*:1])N1CN(C(=O)CC[*:2])CN(C(=O)CC[*:3])C1

Data set [1] has as its target T1, TSLP (Homo sapiens, UniProt Q969D9). Description: Human peripheral blood mononuclear cell assay (TSLP-induced CCL17/TARC). Particulars: read-out: CCL17 % Inhibition @ 10 μM, […] TSLP. Further details: host or cells: added to human PBMCs from healthy donors. It is filed as cell-based. The procedure, abridged: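 Healthy-donor PBMCs (3 million cells/mL, RPMI + 10% FCS) received bicycle peptide or vehicle (0.1% DMSO) premixed 30 min at rt with TSLP, then were incubated 24 h at 37 °C, 10% CO2. Supernatant CCL17/TARC quantified by MSD.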

Data set [2] deals with T1, TSLP. Description: Human TSLP Surface Plasmon Resonance (SPR) binding assay. Set-up: The resulting construct spCD33-6×HN-TEV-hTSLP(29-159)-Avi; 6xHN tag with TEV site (N, cleaved yes); made in house; host or cells: Expi293F cells. The following applies: biotinylated human TSLP immobilized on streptavidin chip; 20° C.; steady-state or kinetic 1:1 fit; read-out: hTSLP SPR Kd.

For data set [3] the following is noted: the molecule shown is the open-chain precursor.
Setting [4] is: crosslinker bond, 29-membered ring, TATA/NH4HCO3, MeCN/H2O.

T1 sequence (Q969D9 29-159): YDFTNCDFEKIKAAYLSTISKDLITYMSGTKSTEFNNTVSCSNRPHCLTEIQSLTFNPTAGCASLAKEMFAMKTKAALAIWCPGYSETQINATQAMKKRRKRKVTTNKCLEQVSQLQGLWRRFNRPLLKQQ

`CC(C)C[C@@H]1NC(=O)[C@H](Cc2c[nH]c3ccccc23)NC(=O)[C@H](Cc2c[nH]c3ccccc23)NC(=O)[C@H](CO)NC(=O)[C@H](CO)NC(=O)[C@@H]2CSCCC(=O)N3CN(CN(C3)C(=O)CCSC[C@H](NC(=O)[C@@H](NC(=O)[C@H](CCC(N)=O)NC(=O)[C@@H](NC(=O)[C@@H](NC(=O)[C@H](C)NC(=O)[C@@H](N)Cc3ccc(O)cc3)[C@@H](C)O)[C@@H](C)O)C(C)C)C(=O)N[C@@H](CCCNC(=N)N)C(=O)N[C@@H](CC(=O)O)C(=O)N[C@@H](CC(C)C)C(=O)N[C@@H](CC(=O)O)C(=O)N3CCC[C@H]3C(=O)N[C@@H](Cc3c[nH]c4ccccc34)C(=O)N[C@@H]([C@@H](C)O)C(=O)N2)C(=O)CCSC[C@@H](C(=O)N[C@@H](C)C(N)=O)NC1=O` [Example 171, YATTQV-(SEQ ID NO: 122)-A]: at TSLP [1], the inhibition at 10 µM was 36%. The Kd on TSLP [2] is 48 nM.
For `CC(C)C[C@@H]1NC(=O)[C@H](Cc2c[nH]c3ccccc23)NC(=O)[C@H](Cc2c[nH]c3ccccc23)NC(=O)[C@H](CC(=O)O)NC(=O)[C@H](CO)NC(=O)[C@@H]2CSCCC(=O)N3CN(CN(C3)C(=O)CCSC[C@H](NC(=O)[C@@H]3CCCN3C(=O)[C@H](C)NC(=O)[C@@H](N)CCCNC(=N)N)C(=O)N3CCC[C@H]3C(=O)N[C@@H](CC(=O)O)C(=O)N[C@@H](CC(C)C)C(=O)N[C@@H](CC(=O)O)C(=O)N3CCC[C@H]3C(=O)N[C@@H](Cc3c[nH]c4ccccc34)C(=O)N[C@@H]([C@@H](C)O)C(=O)N2)C(=O)CCSC[C@@H](C(=O)N[C@@H](C)C(N)=O)NC1=O` [Example 187, RAP-(SEQ ID NO: 136)-A] (H-RAPCPDLDPWTCSDWWLCA-NH2; linker 4-12-18 via TATA; N-terminus and C-terminus assumed) the same measures were 11% and 86 nM.
For `CC(C)C[C@@H]1NC(=O)[C@H](Cc2c[nH]c3ccccc23)NC(=O)[C@H](Cc2c[nH]c3ccccc23)NC(=O)[C@H](CO)NC(=O)[C@H](CC(=O)O)NC(=O)[C@@H]2CSCCC(=O)N3CN(CN(C3)C(=O)CCSC[C@H](NC(=O)[C@@H](NC(=O)[C@H](Cc3c[nH]cn3)NC(=O)[C@@H](N)CO)C(C)C)C(=O)N[C@@H](CCCNC(=N)N)C(=O)N[C@@H](CC(=O)O)C(=O)N[C@@H](CC(C)C)C(=O)N[C@@H](CC(=O)O)C(=O)N3CCC[C@H]3C(=O)N[C@@H](Cc3c[nH]c4ccccc34)C(=O)N[C@@H]([C@@H](C)O)C(=O)N2)C(=O)CCSC[C@@H](C(=O)N[C@@H](C)C(N)=O)NC1=O` [Example 188, SHV-(SEQ ID NO: 137)-A] (H-SHVCRDLDPWTCDSWWLCA-NH2; linker 4-12-18 via TATA; N-terminus and C-terminus assumed), in that order: -4% and 72 nM.
For the molecule `CC(C)C[C@H](NC(=O)CNC(=O)[C@H](CC(=O)O)NC(=O)[C@H](C)NC(=O)[C@@H]1CSCCC(=O)N2CN3CN(C2)C(=O)CCSC[C@H](NC(=O)[C@H]([C@@H](C)O)NC(=O)[C@H](Cc2c[nH]c4ccccc24)NC(=O)[C@@H]2CCCN2C(=O)[C@H](CC(=O)O)NC(=O)[C@H](CC(C)C)NC(=O)[C@H](CC(=O)O)NC(=O)[C@H](CCCNC(=N)N)NC(=O)[C@@H](NC(=O)[C@H](C)N)CSCCC3=O)C(=O)N[C@@H](CO)C(=O)N[C@@H](CO)C(=O)N[C@@H](Cc2c[nH]c3ccccc23)C(=O)N[C@@H](Cc2c[nH]c3ccccc23)C(=O)N[C@@H](CC(C)C)C(=O)N1)C(=O)N[C@@H](Cc1ccc(O)cc1)C(=O)N[C@@H](CC(=O)O)C(=O)N[C@@H](C)C(N)=O` [Example 193, A-(SEQ ID NO: 122)-ADGLYDA], on TSLP [1], the inhibition at 10 µM came out at 47%. Besides, the Kd at TSLP [2] worked out at 50 nM.
In the case of `CC(C)C[C@@H]1NC(=O)[C@H](Cc2c[nH]c3ccccc23)NC(=O)[C@@H]2CSCCC(=O)N3CN(CN(C3)C(=O)CCSC[C@@H](C(=O)N[C@@H](C)C(N)=O)NC(=O)[C@H](CO)NC1=O)C(=O)CCSC[C@H](NC(=O)[C@H](C)N)C(=O)N[C@@H](CC(=O)O)C(=O)N[C@@H](Cc1c[nH]c3ccccc13)C(=O)N[C@@H](Cc1c[nH]cn1)C(=O)N[C@@H](Cc1c[nH]c3ccccc13)C(=O)N[C@@H](CCC(=O)O)C(=O)N[C@@H](Cc1ccc(O)cc1)C(=O)N[C@@H](CC(=O)O)C(=O)N2` [Example 199, A-(SEQ ID NO: 144)-A], the inhibition at 10 µM on TSLP [1] was -3%. Further, on TSLP [2], the Kd was 81 nM.
With `CC(C)C[C@@H]1NC(=O)[C@H](Cc2c[nH]c3ccccc23)NC(=O)[C@@H]2CSCCC(=O)N3CN(CN(C3)C(=O)CCSC[C@H](NC(=O)[C@H](CC(=O)O)NC(=O)[C@H](Cc3c[nH]cn3)NC(=O)[C@@H](N)CC(=O)O)C(=O)N[C@@H]([C@@H](C)O)C(=O)N[C@@H](Cc3c[nH]c4ccccc34)C(=O)N[C@@H](CC(N)=O)C(=O)N[C@@H](Cc3c[nH]c4ccccc34)C(=O)N[C@@H](CCC(=O)O)C(=O)N[C@@H](Cc3ccc(O)cc3)C(=O)N[C@@H](CC(=O)O)C(=O)N2)C(=O)CCSC[C@@H](C(=O)N[C@@H](C)C(N)=O)NC(=O)[C@H](CC(=O)O)NC1=O` [Example 200, DHD-(SEQ ID NO: 145)-A] (H-DHDCTWNWEYDCWLDCA-NH2; linker 4-12-16 via TATA; N-terminus and C-terminus assumed), on TSLP [1], the inhibition at 10 µM is -42%. The Kd at TSLP [2] worked out at 68 nM.
Molecule “Ac-Cys-Gln-X2-Leu-Glu-Asp-Cys-Trp-X1-Gly-Phe(4-F)-Cys-NH2 (X1=L-2-amino-azidobutanoic acid, X2=L-2-aminohept-6-ynoic acid; three Cys bridged by TATA)” showed a ring closure, yield after HPLC in data set [3] (triazole bond, 27-membered ring, CuSO4/Na ascorbate, H2O/tBuOH) of 1%.
For the molecule “Ac-Cys-MeAla-Trp(1-Me)-Ala(tBu)-Gln-Asp-Cys-Trp(1-Me)-ADMA-Gly-Phe(4-F)-Cys-NH2?”, the ring closure, yield after HPLC in data set [3] (setting [4]) came to 19%.
As for “H-Cys-MeAla-Nal1-Ala(tBu)-Gln-Asp-Cys-Trp(1-Me)-ADMA-Gly-Phe(4-F)-Cys-dAla-NH2?”, the ring closure, yield after HPLC in data set [3] (crosslinker bond, 29-membered ring, TATA/NH4HCO3, MeCN/H2O, 0.93 mM) turned out to be 17%.
Consider “N3CH2C(O)NH(CH2CH2O)3CH2CH2(CO)-Cys-MeAla-Trp(1-Me)-Ala(tBu)-Gln-Asp-Cys-Trp(1-Me)-ADMA-Gly-Phe(4-F)-Cys-NH2”, for which, in data set [3] (setting [4]), the ring closure, yield after HPLC was 12%.
The same measure, in the same setting: the same measure for “n-octanoyl-Cys-MeAla-Trp(1-Me)-Ala(tBu)-Gln-Asp-Cys-Trp(1-Me)-ADMA-Gly-Phe(4-F)-Cys-NH2”: 14%.

As usually defined, the inhibition is the relative decrease from the control value, in per cent. The term Kd denotes the constant that tells how readily two partners part at equilibrium.
